Measurements as given in ChEMBL document CHEMBL1201862, “PubChem BioAssay data set” (2004).
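Test compounds were applied to cells in 96-well plates for 48 hours at 5 doses. At the GI50, growth is halved.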 Active and inactive are the calls of the source. Rule as the data show it: active = GI50 up to about 1.1 µM and inactive = higher.

What was measured:
Experiment in all cases: NCI tumour cell line growth inhibition, 48 h
[1] = test system: A549
[2] = test system: COLO 205
[3] = test system: DU-145
[4] = test system: HCT-116
[5] = test system: HL-60
[6] = test system: HOP-62
[7] = test system: HOP-92
[8] = test system: IGROV-1
[9] = test system: M14
[10] = test system: MOLT-4
[11] = test system: OVCAR-5
[12] = test system: OVCAR-8
[13] = test system: RPMI-8226
[14] = test system: SF-268
[15] = test system: SK-MEL-28
[16] = test system: SK-MEL-5
[17] = test system: T47D
[18] = test system: TK-10
[19] = test system: UACC-257
[20] = test system: UACC-62

Row | SMILES | GI50 [1] | GI50 [2] | GI50 [3] | GI50 [4] | GI50 [5] | GI50 [6] | GI50 [7] | GI50 [8] | GI50 [9] | GI50 [10] | GI50 [11] | GI50 [12] | GI50 [13] | GI50 [14] | GI50 [15] | GI50 [16] | GI50 [17] | GI50 [18] | GI50 [19] | GI50 [20]
1 | CCOC(=O)c1nc2cc(Cl)ccc2[nH]c1=O | > 100 µM (inactive) | > 100 µM (inactive) | > 100 µM (inactive) | > 100 µM (inactive) | > 100 µM (inactive) | > 100 µM (inactive) | > 100 µM (inactive) | > 100 µM (inactive) | > 100 µM (inactive) | > 100 µM (inactive) | > 100 µM (inactive) | > 100 µM (inactive) | > 100 µM (inactive) | > 100 µM (inactive) | > 100 µM (inactive) | > 100 µM (inactive) | > 100 µM (inactive) | > 100 µM (inactive) | > 100 µM (inactive) | > 100 µM (inactive)
2 | c1ccc(-c2cc(-c3cccs3)c(-c3cccs3)s2)cc1 |  | 47.3 µM (inactive) | 64 µM (inactive) | 19.6 µM (inactive) | 25.5 µM (inactive) | > 100 µM (inactive) | > 100 µM (inactive) | > 100 µM (inactive) | 18.9 µM (inactive) | 21.2 µM (inactive) | > 100 µM (inactive) | > 100 µM (inactive) | 31.8 µM (inactive) | > 100 µM (inactive) |  | 33.7 µM (inactive) | 4.5 µM (inactive) | 32.2 µM (inactive) | 56.8 µM (inactive) | > 100 µM (inactive)
3 | O=CC1OC(=O)c2cc(O)c(O)c(O)c2-c2c(cc(O)c(O)c2O)C(=O)OC1C1OC(=O)c2cc(O)c(O)c(O)c2-c2c(O)c(O)c3oc(=O)c4c(c(O)c(O)c5oc(=O)c2c3c54)-c2c(cc(O)c(O)c2O)C(=O)OCC1O (centres undefined) | 24.9 µM (inactive) | 26 µM (inactive) | 50.6 µM (inactive) | 16.9 µM (inactive) | 20.9 µM (inactive) | 44.3 µM (inactive) | 16.6 µM (inactive) | 39.4 µM (inactive) | 24.5 µM (inactive) | 26.1 µM (inactive) | 29.6 µM (inactive) | 19.3 µM (inactive) | 57.8 µM (inactive) | 56.9 µM (inactive) | > 100 µM (inactive) | 18.2 µM (inactive) | 43.1 µM (inactive) |  | 46.2 µM (inactive) | 29.4 µM (inactive)
4 | CC1CCC2(CC1)N=C1CCC(C)CC1C1(CCC(C)CC1)N2 (centres undefined) | > 100 µM (inactive) | > 100 µM (inactive) | > 100 µM (inactive) | 36 µM (inactive) | 43.8 µM (inactive) |  | > 100 µM (inactive) | > 100 µM (inactive) | > 100 µM (inactive) | 25.9 µM (inactive) | > 100 µM (inactive) | > 100 µM (inactive) | 82 µM (inactive) |  | > 100 µM (inactive) | 29.7 µM (inactive) | 67.3 µM (inactive) | > 100 µM (inactive) | 83.6 µM (inactive) | > 100 µM (inactive)
5 | O=C(O)CC(Sc1ccccc1)c1ccccc1 (centres undefined) | > 100 µM (inactive) | > 100 µM (inactive) | > 100 µM (inactive) | > 100 µM (inactive) | > 100 µM (inactive) | > 100 µM (inactive) | > 100 µM (inactive) | > 100 µM (inactive) | > 100 µM (inactive) | > 100 µM (inactive) | > 100 µM (inactive) | > 100 µM (inactive) | > 100 µM (inactive) | > 100 µM (inactive) | > 100 µM (inactive) | > 100 µM (inactive) | > 100 µM (inactive) | > 100 µM (inactive) |  | > 100 µM (inactive)
6 | CC[C@@H]1CC[C@@H]2[C@H](CC[C@]3(C)[C@@H](OS(=O)(=O)c4ccc(C)cc4)CC[C@@H]23)[C@H]1CO | > 100 µM (inactive) | 12.4 µM (inactive) | > 100 µM (inactive) | > 100 µM (inactive) | 17.8 µM (inactive) | > 100 µM (inactive) | > 100 µM (inactive) | > 100 µM (inactive) | 87.3 µM (inactive) | > 100 µM (inactive) | > 100 µM (inactive) | > 100 µM (inactive) | 17 µM (inactive) | > 100 µM (inactive) | > 100 µM (inactive) | 42.6 µM (inactive) | 29.2 µM (inactive) | > 100 µM (inactive) | 80.2 µM (inactive) | 
7 | COC(=O)c1c2c(c3[nH]c4ccccc4c3c1C(=O)OC)C(=O)C1=C(C2=O)C2(Cl)C(Cl)C(Cl)C1(Cl)C2(Cl)Cl (centres undefined) | 3.21 µM (inactive) | 1.81 µM (inactive) | 2.07 µM (inactive) | 2.02 µM (inactive) | 2.29 µM (inactive) | 3.76 µM (inactive) | 1.77 µM (inactive) | 2.69 µM (inactive) | 1.46 µM (inactive) | 1.17 µM (inactive) | 4.69 µM (inactive) | 1.75 µM (inactive) | 1.19 µM (inactive) | 0.436 µM (active) | 1.56 µM (inactive) | 1.31 µM (inactive) | 1.35 µM (inactive) | 3.56 µM (inactive) |  | 1.99 µM (inactive)
8 | CSC(=S)CC(O)[C@@H]1CC2c3ccccc3C1c1ccccc12 (some centres undefined) | 17.1 µM (inactive) | 18.1 µM (inactive) | 15.2 µM (inactive) | 8.11 µM (inactive) | 2.54 µM (inactive) | 15.7 µM (inactive) | 17.4 µM (inactive) | 11.8 µM (inactive) | 12.7 µM (inactive) | 1.49 µM (inactive) | 16.7 µM (inactive) | 14.9 µM (inactive) | 3.11 µM (inactive) | 15.4 µM (inactive) | 21.7 µM (inactive) | 13.4 µM (inactive) | 5.5 µM (inactive) | 15.2 µM (inactive) |  | 12.1 µM (inactive)
9 | O=c1c(C(c2ccc(/C=C/c3ccccc3)cc2)c2c(O)oc3ccccc3c2=O)c(O)oc2ccccc12 |  | 22.6 µM (inactive) | 50.8 µM (inactive) | 29.6 µM (inactive) | 49.3 µM (inactive) | 27.8 µM (inactive) | 23.1 µM (inactive) | 27.3 µM (inactive) |  | 24.1 µM (inactive) |  | 20.2 µM (inactive) | 27.2 µM (inactive) | 22.4 µM (inactive) | 33.3 µM (inactive) | 26.5 µM (inactive) | 39.2 µM (inactive) | 92.5 µM (inactive) | 53.7 µM (inactive) | 35.6 µM (inactive)
10 | CCOC(=O)c1ccc(NCC#CCN2CCCCC2)cc1 | > 100 µM (inactive) | 41.9 µM (inactive) | > 100 µM (inactive) | 96.8 µM (inactive) | 60.1 µM (inactive) | > 100 µM (inactive) | > 100 µM (inactive) | > 100 µM (inactive) | 59.2 µM (inactive) | > 100 µM (inactive) | 83.6 µM (inactive) |  | > 100 µM (inactive) | > 100 µM (inactive) | > 100 µM (inactive) | 38.5 µM (inactive) | > 100 µM (inactive) |  |  | 50.1 µM (inactive)
11 | COC(=O)C1(Cc2ccc3c(c2)CCC3)Cc2ccc3c(c2C1)CCC3 (centres undefined) | 27.4 µM (inactive) | 19 µM (inactive) | 24.8 µM (inactive) | 18.1 µM (inactive) | 23.4 µM (inactive) | 30.1 µM (inactive) | 18.7 µM (inactive) | 21.1 µM (inactive) |  | 43.3 µM (inactive) |  | 32.1 µM (inactive) | 19.4 µM (inactive) | 44.4 µM (inactive) | 23.9 µM (inactive) | 16.6 µM (inactive) | 1.47 µM (inactive) | 49.7 µM (inactive) | 5.61 µM (inactive) | 32 µM (inactive)
12 | COC(=O)CC(C)(N[S+]([O-])c1ccc(C)cc1)c1ccccc1 (centres undefined) | > 100 µM (inactive) | > 100 µM (inactive) | > 100 µM (inactive) | > 100 µM (inactive) | > 100 µM (inactive) | > 100 µM (inactive) | > 100 µM (inactive) | > 100 µM (inactive) |  | > 100 µM (inactive) | > 100 µM (inactive) |  | > 100 µM (inactive) | > 100 µM (inactive) | > 100 µM (inactive) | > 100 µM (inactive) | > 100 µM (inactive) | > 100 µM (inactive) | > 100 µM (inactive) | > 100 µM (inactive)
13 | NN/C(=N\c1ccc(Cl)cc1)NS(=O)(=O)c1ccc(S(=O)(=O)c2ccccc2)s1 | 20.1 µM (inactive) | 17 µM (inactive) | 21.8 µM (inactive) | 14.8 µM (inactive) | 24.2 µM (inactive) | 41.2 µM (inactive) | 18.6 µM (inactive) | 19 µM (inactive) | 15.8 µM (inactive) | 9.16 µM (inactive) | 37.6 µM (inactive) | 30.3 µM (inactive) | 21.2 µM (inactive) |  | 46.7 µM (inactive) | 19.2 µM (inactive) | 8.17 µM (inactive) | 26.7 µM (inactive) | 18 µM (inactive) | 7.21 µM (inactive)
14 | Cn1cc(S(=O)(=O)NC(=O)Nc2ccc(Cl)cc2)c(=O)c2ccc(F)cc21 | > 100 µM (inactive) | > 100 µM (inactive) | > 100 µM (inactive) | > 100 µM (inactive) | > 100 µM (inactive) | > 100 µM (inactive) | > 100 µM (inactive) | > 100 µM (inactive) |  | > 100 µM (inactive) | > 100 µM (inactive) | > 100 µM (inactive) | > 100 µM (inactive) | > 100 µM (inactive) | > 100 µM (inactive) | > 100 µM (inactive) | > 100 µM (inactive) | > 100 µM (inactive) | > 100 µM (inactive) | 3.01 µM (inactive)
